In patent US5223526A, “Pyrazole carboxanilide fungicides and use” (Monsanto Company, priority 1992, dated 1993):
Where two headings read alike, the source gives them in different places.

How the values were obtained:
Botrytis cinerea [1] = assay: Vine grey mold (grape berries); type: in vivo; conditions: average of six berries, 7-10 days; for pest or weed control at 50 ppm: grape berries treated with 50 ppm, read-out: % DISEASE CONTROL 50 ppm; for pest or weed control at 200 ppm: grape berries treated with 200 ppm, read-out: % DISEASE CONTROL 200 ppm
Method in brief: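 Preventive berry test: compound at 50 or 200 ppm (acetone/water, 0.05% Tween 20) applied one day before inoculation with 10^6 spores/mL Botrytis conidia. After 7-10 days at 20 °C under 12 h light, infected surface area rated; disease control expressed as percent reduction from control mean; repeated-test values averaged.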

Rhizoctonia solani = assay: Rice sheath blight; type: in vivo; set-up: scale not given here; conditions: inoculated two days later, rated after 7 days, average of five plants; for Disease Control Rating at 0.5 mg/mL: foliage and soil sprayed with 0.5 mg/mL; for Disease Control Rating at 0.02 mg/mL: foliage and soil sprayed with 0.02 mg/mL; for Disease Control Rating at 0.1 mg/mL: foliage and soil sprayed with 0.1 mg/mL
Method in brief: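 Preventive test: R. solani inoculum on rice grain was applied at the plant base two days after spraying foliage and soil with Compound A (0.5, 0.1 or 0.02 mg/mL, water/acetone/Tween 20). Plants aged 11–15 days stood in flood trays; after 7 days at 25 °C and high humidity, disease control was rated against untreated plants, five plants averaged.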

succinate dehydrogenase = molecular target: T1, succinate dehydrogenase (Botrytis cinerea, UniProt A0A384J5E4+A0A384J8V8+A0A384JHJ5); assay: Enzyme inhibition: succinate dehydrogenase activity in Botrytis cinerea mitochondria (DCPIP reduction); type: biochemical
T1 construct: succinate-DCPIP reductase assay with KCN
T1 sequence (A0A384J5E4 1-300): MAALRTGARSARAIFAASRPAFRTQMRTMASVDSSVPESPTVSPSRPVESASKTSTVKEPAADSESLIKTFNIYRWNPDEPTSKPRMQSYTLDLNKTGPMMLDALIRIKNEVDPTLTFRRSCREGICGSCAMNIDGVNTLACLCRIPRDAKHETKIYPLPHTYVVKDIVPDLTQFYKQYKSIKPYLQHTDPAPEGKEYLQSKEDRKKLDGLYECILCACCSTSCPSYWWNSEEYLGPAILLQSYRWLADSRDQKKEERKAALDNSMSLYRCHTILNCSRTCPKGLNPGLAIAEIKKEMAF
T1 sequence (A0A384J8V8 1-189): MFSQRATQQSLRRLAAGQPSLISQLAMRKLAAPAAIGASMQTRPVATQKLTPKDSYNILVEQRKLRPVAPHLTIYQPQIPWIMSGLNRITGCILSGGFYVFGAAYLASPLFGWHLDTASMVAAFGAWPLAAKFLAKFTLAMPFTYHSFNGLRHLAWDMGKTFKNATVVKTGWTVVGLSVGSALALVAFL
T1 sequence (A0A384JHJ5 1-192): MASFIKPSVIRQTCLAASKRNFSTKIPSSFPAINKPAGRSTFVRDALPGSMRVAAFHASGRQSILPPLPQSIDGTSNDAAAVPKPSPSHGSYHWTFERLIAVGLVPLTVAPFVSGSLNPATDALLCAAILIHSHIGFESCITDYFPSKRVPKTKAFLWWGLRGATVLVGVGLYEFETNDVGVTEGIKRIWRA
T1 sequence (A0A384K456 1-647 partner): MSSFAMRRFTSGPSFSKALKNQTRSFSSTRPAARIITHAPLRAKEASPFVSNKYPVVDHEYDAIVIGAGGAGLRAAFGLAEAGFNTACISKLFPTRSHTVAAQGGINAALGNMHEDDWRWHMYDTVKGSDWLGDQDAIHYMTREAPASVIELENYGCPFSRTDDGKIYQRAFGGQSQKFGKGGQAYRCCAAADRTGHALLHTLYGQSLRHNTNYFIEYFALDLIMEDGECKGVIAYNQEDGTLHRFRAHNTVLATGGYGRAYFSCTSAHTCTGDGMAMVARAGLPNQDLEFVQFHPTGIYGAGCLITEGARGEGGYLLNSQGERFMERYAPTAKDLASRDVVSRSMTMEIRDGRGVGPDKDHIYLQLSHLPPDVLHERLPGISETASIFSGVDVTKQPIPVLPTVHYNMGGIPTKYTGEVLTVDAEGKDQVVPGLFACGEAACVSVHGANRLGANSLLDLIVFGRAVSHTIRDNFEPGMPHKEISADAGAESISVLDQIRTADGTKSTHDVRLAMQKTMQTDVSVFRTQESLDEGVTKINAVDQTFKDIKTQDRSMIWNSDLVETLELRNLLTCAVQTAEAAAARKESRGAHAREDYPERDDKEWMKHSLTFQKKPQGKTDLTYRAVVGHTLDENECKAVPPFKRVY
Method in brief: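 DCPIP (45 μM) reduction at 600 nm tracked with 17 mM succinate, 1 mM KCN and 50 mM potassium phosphate, pH 7.2. Compounds were added in acetone (final 1% v/v), and Botrytis cinerea isolate Nick mitochondrial fraction initiated the reaction. Rates minus endogenous activity gave percentage inhibition, plotted semilog against concentration to derive I50 (μM).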

Botrytis cinerea [2] = assay: Eggplant grey mold; type: in vivo; set-up: scale not given here; conditions: inoculated 24 h later, rated after 3-4 days; for Disease Control Rating at 20 ppm: eggplant sprayed with 20 ppm; for Disease Control Rating at 100 ppm: eggplant sprayed with 100 ppm; for Disease Control Rating at 500 ppm: eggplant sprayed with 500 ppm
Method in brief: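 Protective test: compound formulations (2:3 acetone:water, 0.5% Tween 20; 500, 100 or 20 ppm) sprayed on 14-18-day-old plants, with spore inoculum (4×10^6 spore/mL) applied a day later. Disease control rated on Botrytis lesions after 3-4 days at 23 °C and 100% humidity.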

[3] = concentration required to inhibit the rate of DCPIP reduction by 50%; Botrytis cinerea isolate Nick mitochondria; read-out: I50 (μM conc.)

Row | SMILES | pest or weed control at 50 ppm (Botrytis cinerea [1]) [%] | pest or weed control at 200 ppm (Botrytis cinerea [1]) [%] | Disease Control Rating at 0.5 mg/mL (Rhizoctonia solani) | IC50 (succinate dehydrogenase; [3]) [µM] | Disease Control Rating at 20 ppm (Botrytis cinerea [2]) | Disease Control Rating at 100 ppm (Botrytis cinerea [2]) | Disease Control Rating at 500 ppm (Botrytis cinerea [2]) | IC50 (succinate dehydrogenase; read-out: I50 (μM conc.); concentration required to inhibit the rate of DCPIP reduction by 50%; Botrytis cinerea isolate Nick mitochondria) [µM] | Disease Control Rating at 0.02 mg/mL (Rhizoctonia solani) | Disease Control Rating at 0.1 mg/mL (Rhizoctonia solani)
1 | Cn1cc(C(=O)Nc2ccccc2CC2=CCCC2)c(C(F)F)n1 [Example 117, 1H-pyrazole-4-carboxamide, N-[2-(1-cyclopenten-1-ylmethyl)phenyl]-3-(difluoromethyl)-1-methyl-] | 80 | 19 | 0 | 0.17 | 0 | 1 | 2 | – | – | –
2 | Cn1cc(C(=O)Nc2ccccc2C=C2CCCC2)c(C(F)F)n1 [Example 118, 1H-pyrazole-4-carboxamide, N-[2-(cyclopentylidenemethyl)phenyl]3-(difluoromethyl)-1-methyl-] | 37 | 87 | 1 | 0.029 | – | – | 0 | – | – | –
3 | Cn1cc(C(=O)Nc2ccccc2C2=CCCCCCC2)c(C(F)F)n1 [Example 119] | 73 | 84 | 2 | – | 0 | 1 | 2 | 0.0035 | – | –
4 | Cn1cc(C(=O)Nc2ccccc2C2=CCCCCCC2)c(C(F)(F)F)n1 [Example 120, 1H-pyrazole-4-carboxamide, N-[2-(1-cycloocten-1-yl)phenyl]-1-methyl-3-(trifluoromethyl)-] | 60 | 82 | 3 | 0.0041 | 0 | 0 | 2 | – | – | –
5 | Cn1cc(C(=O)Nc2ccccc2C2=CC(C)(C)CC(C)(C)C2)c(C(F)F)n1 [Example 121, 1H-pyrazole-4-carboxamide, 3-(difluoromethyl)-1-methyl-N-[2-(3,3,5,5-tetramethyl-1-cyclohexen-1-yl)phenyl]-] | 33 | 64 | 3 | 0.0069 | 0 | 0 | 1 | – | 1 | 3
6 | Cn1cc(C(=O)Nc2ccccc2C2=CCCC2(C)C)c(C(F)F)n1 [Example 122, 1H-pyrazole-4-carboxamide, 3-(difluoromethyl)-N-[2-(5,5-dimethyl-1-cyclopenten-1-yl)phenyl]-1-methyl-] | 67 | 79 | 0 | 0.034 | 1 | 2 | 2 | – | – | –
7 | Cn1cc(C(=O)Nc2ccccc2C2=CC(C)(C)CC(C)(C)C2)c(C(F)(F)F)n1 [Example 123, 1H-pyrazole-4-carboxamide, 1-methyl-N-[2-(3,3,5,5-tetramethyl-1-cyclohexen-1-yl)phenyl]-3-(trifluoromethyl)-] | 14 | 36 | 0 | 0.023 | 0 | 0 | 0 | – | – | –
8 | CC1=C(c2ccccc2NC(=O)c2cn(C)nc2C(F)F)C(C)CCC1 (stereo not drawn) [Example 124, 1H-pyrazole-4-carboxamide, 3-(difluoromethyl)-N-[2-(2,6-dimethyl-1-cyclohexen-1-yl)phenyl]-1-methyl-] | 48 | 96 | 2 | 0.013 | 0 | 1 | 2 | – | – | –
9 | CCC1CC=C(c2ccccc2NC(=O)c2cn(C)nc2C(F)F)CC1 (stereo not drawn) [Example 125, 1H-pyrazole-4-carboxamide, 3-(difluoromethyl)-N-[2-(4-ethyl-1-cyclohexen-1-yl)phenyl]-1-methyl-] | 88 | 93 | 3 | 0.005 | 2 | 1 | 2 | – | 2 | 2
10 | CCC1CC=C(c2ccccc2NC(=O)c2cn(C)nc2C(F)(F)F)CC1 (stereo not drawn) [Example 126, 1H-pyrazole-4-carboxamide, N-[2-(4-ethyl-1-cyclohexen-1-yl)phenyl]-1-methyl-3-(trifluoromethyl)-] | 59 | 97 | 3 | 0.0066 | 0 | 1 | 1 | – | – | –
11 | Cn1cc(C(=O)Nc2ccccc2C=C2CCCC2)c(C(F)(F)F)n1 [Example 127, 1H-pyrazole-4-carboxamide, N-[2-(cyclopentylidenemethyl)phenyl]-1-methyl-3-(trifluoromethyl)-] | 12 | 52 | 2 | 0.083 | 0 | 0 | 1 | – | – | –
12 | CC(C)C1=C(c2ccccc2NC(=O)c2cn(C)nc2C(F)(F)F)CCCC1 [Example 128, 1H-pyrazole-4-carboxamide, N-[2-[2-(1-methylethyl)-1-cyclohexen-1-yl]phenyl]-1-methyl-3-(trifluoromethyl)-] | 0 | 0 | 0 | 1.3 | 0 | 0 | 0 | – | – | –
13 | Cn1cc(C(=O)Nc2ccccc2CC2CCCCC2)c(C(F)F)n1 [Example 129, 1H-pyrazole-4-carboxamide, N-[2-(cyclohexylmethyl)phenyl]-3-(difluoromethyl)-1-methyl-] | 7 | 0 | 3 | 0.11 | 0 | 0 | 0 | – | 3 | 3
14 | Cn1cc(C(=O)Nc2ccccc2CC2CCCCC2)c(C(F)(F)F)n1 [Example 130, 1H-pyrazole-4-carboxamide, N-[2-(cyclohexylmethyl)phenyl]-1-methyl-3-(trifluoromethyl)-] | 2 | 21 | 2 | 0.37 | 0 | 0 | 0 | – | – | –
